Data on one compound can be found in patent US9296716B2, “Androgen receptor ligands” (THE PROVOST, FELLOWS, FOUNDATION SCHOLARS, & THE OTHER …, priority 2011, dated 2016).

Assay [1] has as its target T1, Estrogen Receptor alpha (ER-α) LBD (Homo sapiens, UniProt P03372).
T1 sequence (P03372 311-547 limits assumed): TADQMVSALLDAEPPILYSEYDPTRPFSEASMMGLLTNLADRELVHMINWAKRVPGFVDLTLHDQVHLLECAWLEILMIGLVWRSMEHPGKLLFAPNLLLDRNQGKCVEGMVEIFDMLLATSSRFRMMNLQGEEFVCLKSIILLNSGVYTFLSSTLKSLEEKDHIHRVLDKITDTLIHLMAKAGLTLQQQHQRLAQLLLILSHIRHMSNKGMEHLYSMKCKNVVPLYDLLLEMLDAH
The assay can be described thus: TR-FRET PGC1-α coactivator recruitment assay, ERα LBD. The class given is biochemical. To be noted: Estradiol = EC80. How it is done: (§1) Compound binding affinities for Progesterone Receptor (PR), Glucocorticoid Receptor (GR), Estrogen Receptor alpha and Estrogen Receptor beta were determined using TR-FRET (Table 2).
Selectivity of the diarylhydrazide scaffold for the AR was determined through a TR-FRET assay in ERα (FIGS. 8A & 9A1) and ERR (FIGS. 8B & 9A2). […] The non-LBP nature of this inhibition was confirmed by a FP assay (FIGS. 9C, 9B1 & 9B2).
(§2) Lanthascreen TR-FRET AR Coactivator Assay kit (Invitrogen, cat no. PV4381) was used to screen for potential coactivator disruptors.
(§3) TR FRET values were calculated at 10 flashes per well, using a delay time of 100 μs and integration time 200 μs as recommended by the Invitrogen assay guidelines. […] A serial dilution of compounds was firstly prepared in 100×DMSO (Sigma-Aldrich) starting from the maximum desired concentration to achieve a 12 point range concentration using 96-well polypropylene plates (Nalgene Nunc, Rochester, N.Y.). Each 100× solution was diluted to 2× concentration with TR-FRET co-regulator buffer A (Invitrogen proprietary buffer), yielding a final concentration of 1% DMSO in each well.
(§4) D11-FxxLF and Tb antibody were premixed in light protecting vials prior to use. A final concentration of DTT 5 mM was used in the assay buffer in order to prevent protein degradation. All plates (agonist and antagonist mode) were incubated between 2 and 4 hours at room temperature protected from light prior to TR-FRET measurement. […] Data was fitted using the sigmoidal dose response (variable slope) available from Graphpad Prism 5. Y=Bottom+(Top-Bottom)/(1+10^((Log IC50−X)*HillSlope))
(§5) The same procedure was used for AR T877A (Invitrogen cat no. PV4667), PR (Invitrogen cat no. PV4666), ER-α (Invitrogen cat no. PV4544), ER-β (Invitrogen cat no. PV4541) and GR (Invitrogen cat no. PV4683). The assay was adapted to exclude possible non-specific aggregation mechanism of inhibition by adding very low concentration of detergent Triton X-100 (0.001%) to the assay buffer following the Shoichet review guidelines [Shoichet BK (2006) Screening in a spirit haunted world. Drug Discov Today 11:607-615].

The next assay concerns LNCaP cells. The assay can be described thus: LNCaP cell proliferation assay (androgen deprived, AlamarBlue). The class given is cell-based. To be noted: LNCaP. How it is done: To determine the optimal DHT concentration and length of treatment required for cell proliferation assays, we tested a range of DHT concentrations in 0.1% DMSO for 5 or 7 days in LNCaP cells cultured in FBS stripped phenol red free media. […] Media and treatments were replaced every second incubation day (FIGS. 12 A and B)
For cell viability (end point) assays LNCaP, PC-3 and PWR-1E cells were seeded at 2.5*10^4/ml density in 200 μl volume of a 96-well plate in triplicate and incubated for 24 hours prior testing. Test compounds were included at different concentrations to achieve a final concentration of 0.5% DMSO in each well. Effect of 0.5% DMSO on cell-viability was also evaluated. Cell viability was assessed after 24 hours of treatment using 10% Alamar Blue reagent (Invitrogen) for each well. Cell viability was monitored by the reduction of resazurin, a blue, cell-permeable and non-toxic compound, to resorufin, a red and highly fluorescent product. Viable cells continuously convert resazurin to resorufin, increasing the overall colour and fluorescence of the media surrounding cells. Fluorescence intensity can be quantitatively determined with a fluorescence microplate reader at excitation/emission 544 nm/590 nm (Spectramax Gemini). For hormone dependent cell proliferation assays in androgen deprived LNCaP cells, cells were seeded at 2*10^4 cells/ml in a 24-well plate in triplicate. Cells were plated in phenol red free RPMI Glutamax (Invitrogen) supplemented with 10% charcoal-stripped FBS to deplete endogenous steroids 48 hours prior the assay as described in previous reports. […] Cells were treated with different concentrations of test compounds with or without 0.1 nM DHT to achieve a final concentration of 0.1% DMSO in each well. A control for the vehicle was included to ensure no effect on viability could be detected. Media and treatments were replaced every second day, after washing the cells twice with 1×PBS. Supernatants were collected after five days for secreted PSA levels evaluation and cell proliferation was assessed for the same plate using Alamar Blue in order to exclude non-specific effects due to toxicity issues.

A further assay addresses T2, AR-LBD wt (Homo sapiens, UniProt P10275).
T2 sequence (P10275 669-900 limits assumed): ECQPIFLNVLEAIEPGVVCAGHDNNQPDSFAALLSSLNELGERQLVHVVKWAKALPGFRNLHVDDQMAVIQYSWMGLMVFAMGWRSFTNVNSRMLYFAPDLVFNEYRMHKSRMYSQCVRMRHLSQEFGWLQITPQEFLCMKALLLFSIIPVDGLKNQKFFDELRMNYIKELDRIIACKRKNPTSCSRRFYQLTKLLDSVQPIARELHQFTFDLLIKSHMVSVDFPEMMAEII
In words: Lanthascreen TR-FRET AR coactivator (D11-FxxLF) assay, AR-LBD wt. The class given is biochemical. The settings on record: for IC50: TR-FRET, D11-FxxLF peptide, DHT = EC80.

The target of assay [2] is T3, Glucocorticoid Receptor (GR) LBD (Homo sapiens, UniProt P04150).
T3 construct: purchased Invitrogen PV4683
T3 sequence (P04150 524-758 limits assumed): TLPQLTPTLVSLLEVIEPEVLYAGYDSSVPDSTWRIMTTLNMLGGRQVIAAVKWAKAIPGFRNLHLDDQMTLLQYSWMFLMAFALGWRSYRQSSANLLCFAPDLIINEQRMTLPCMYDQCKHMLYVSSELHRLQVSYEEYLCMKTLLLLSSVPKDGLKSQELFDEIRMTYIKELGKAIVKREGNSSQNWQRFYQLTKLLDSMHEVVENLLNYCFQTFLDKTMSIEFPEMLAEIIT
In words: TR-FRET SRC1-4 coactivator recruitment assay, GR LBD. It is filed as biochemical. The settings on record: Dexamethasone = EC80. How it is done: as §1
Dexamethasone bound receptor recruitment of the fluorescently labelled SCR1-4 coactivator was unimpaired at screening concentrations up to 100 μM for all the diarylhydrazides evaluated (FIG. 5).
as §2, §3, §4, §5

Where two headings read alike, the source gives them in different places.

For the compound `COc1cc(/C=N/NC(=O)c2cc3c(ccc4ccccc43)o2)cc(OC)c1O` [MDG506], the “effect on ERα recruitment of fluorescent labelled PGC1-α” value in assay [1] (100 μM to 45 nM) was “partially inhibit”. Also, the IC50 in assay [1] (TR-FRET, ± SEM (n = 6), read-out: NR LBDs IC50 (μM) ER-α) is > 100 µM; at AR-LBD wt (read-out: AR (wt)) it was 26.3 ± 3.8 µM; at AR-LBD wt (read-out: Activity (AR wt TR-FRET)), 26.3 ± 3.8 µM; in assay [2] (TR-FRET, ± SEM (n = 6), read-out: NR LBDs IC50 (μM) GR), > 100 µM. For the same compound, in the assay with LNCaP cells (DHT 0.1 nM, 5 days), the “DHT dependent cell proliferation” value is on record as “clear dose dependent effect in reducing”. Further, in the assay with LNCaP cells (MDG506 at 10 or 20 μM), the “CPA induced cell proliferation” value was “reduces”. The “cell proliferation in absence of DHT / androgens” value in the assay on LNCaP cells (androgen deprived media, no DHT) is on record as “does not induce”. Besides, the “type of AR antagonism (full / partial)” value on AR-LBD wt (TR-FRET in agonist and antagonist mode) is given as “full AR antagonists”. Moreover, the “effect on SRC1-4 recruitment by GR LBD” value in assay [2] (100 μM to 12.5 μM or single point 100 μM) is “do not affect”.
